In ChEMBL document CHEMBL3507680, “University of Dundee, Gates Library screen for HepG2 cell viability”:

Assay: Human HepG2 cell viability assay in 384 well format
Format: toxicity, cell-based
Parameters: dose 125 nL, time 70.5 hour; cytotoxicity at 70.5 h: concentration not given beside the values
Details: HepG2 cells, read-out: Inhibition

Compared with `Cc1nc(N(C)C)nc2c1COCC21CCN(C(=O)NC(C)C)C1` (configuration not stated), `Cc1ccc(N2CC[C@H]3OCC[C@@]3(C(=O)NC(C)C)C2)nn1` is lower in cytotoxicity at 70.5 h: 4.31% for the first, 1.98% for the second.

Going from `O=C(Cc1ccccc1)N1CCC2(CC(=O)N(c3ccsc3)C2)C1` (configuration not stated) to `O=C(c1ccco1)N1CCOCC2(C1)CN(c1ccccc1)C(=O)CO2` (configuration not stated), the cytotoxicity at 70.5 h falls from -0.17% to -5.76%.

Going from `CNC(=O)[C@H]1CCS(=O)(=O)[C@@H]2CN(Cc3ccc(OC)cc3)C[C@H]12` to `COCC1c2c(cnn2CC2CC2)CCN1Cc1ccc(OC)cc1` (configuration not stated), the cytotoxicity at 70.5 h rises from -4.04% to 49.3%.

Going from `COCc1cncc2c1CCN(C(=O)c1ccc(C)o1)C2` to `CN(Cc1ccco1)Cc1cncc2c1CCN(c1ncccn1)C2`, the cytotoxicity at 70.5 h rises from 4.32% to 7.69%.

First: N#Cc1cccc(C(=O)N2CCc3ncc(Cn4cccn4)n3CC2)c1
Second: CCN1CCn2c(C)cnc2C12CCN(C(=O)c1ccc(Cl)cc1)CC2
The cytotoxicity at 70.5 h of the first is higher: 8.26% for the first, -11.3% for the second.

First: CNC(=O)[C@H]1C[C@@H]2CN(C(=O)c3cscn3)C[C@@H]2N1S(C)(=O)=O
Second: CNC(=O)[C@@H]1C[C@H]2CN(C(=O)c3ccco3)C[C@H]2N1C
The cytotoxicity at 70.5 h of the first is lower: -1.08% for the first, 2.59% for the second.

Going from `c1ccc(CN2CC[C@H]3CO[C@H](CNc4ncccn4)[C@H]3C2)nc1` to `c1cnc(NC[C@@H]2CCC[C@@H]3CN(Cc4cccnc4)C[C@@H]32)nc1`, the cytotoxicity at 70.5 h falls from -0.901% to -2.09%.

Compared with `CCS(=O)(=O)N1CCO[C@H]2[C@H](OCC3CCCC3)CC[C@@H]21`, `O=S(=O)(C1CC1)N1CCO[C@H]2[C@H](OCC3CCCC3)CC[C@@H]21` is higher in cytotoxicity at 70.5 h: -13.9% for the first, 1.94% for the second.

Going from `CCS(=O)(=O)N1Cc2nccn2CC(COc2cccnc2)C1` (configuration not stated) to `CN1CCCC1(CCCc1cccnc1)C(=O)NCc1nccn1C` (configuration not stated), the cytotoxicity at 70.5 h rises from -2.17% to -1.26%.

Compared with `COc1ncnc2c1CCN(c1cc(C(F)(F)F)ncn1)CC2`, `Cc1ccc(CN2CCc3ncnc(-c4cccnc4)c3CC2)o1` is higher in cytotoxicity at 70.5 h: -6.15% for the first, -5.88% for the second.

First: CN1CC2(COCCN(C(=O)c3ccco3)C2)OCC1=O (configuration not stated)
Second: CC(C)CCN1CCC2(CC1)CN(C(=O)c1cnccn1)CCO2
The cytotoxicity at 70.5 h of the first is higher: 6.17% for the first, 1.9% for the second.

Compared with `Cn1cc(CN2CCCn3cnc(CN4CCCC4=O)c3C2)cn1`, `Cc1nc(CN2CCC3(CCCN(Cc4cnn(C)c4)C3)C2=O)cs1` (configuration not stated) is higher in cytotoxicity at 70.5 h: -17.3% for the first, 0.731% for the second.

Going from `CCC1=N[C@@]2(CC[C@@H]3CN(C(=O)NCC(C)C)C[C@@H]32)C(=O)N1CC(C)C` to `COCC(=O)N1CCCC1c1nc(C)c2c(n1)N(CC(C)C)C(=O)CC2` (configuration not stated), the cytotoxicity at 70.5 h rises from -9.11% to -6.03%.

Going from `Cn1cnc2c1C(COCc1cccnc1)N(Cc1ccccn1)CC2` (configuration not stated) to `CC(=O)N1CCCC1c1nccnc1NCc1cccnc1` (configuration not stated), the cytotoxicity at 70.5 h falls from -3.62% to -8.19%.

Compared with `O=C(C1CCOCC1)N1CCCC1c1cncc(CN2CCCC2)n1` (configuration not stated), `c1ccc(Cc2cncc(C3CCCN3C3CCOCC3)n2)cc1` (configuration not stated) is lower in cytotoxicity at 70.5 h: -0.0308% for the first, -6.45% for the second.

Going from `COCC(=O)N1CCN(C)CC(Cc2cc(N(C)C)ncn2)C1` (configuration not stated) to `COCC1CN(C(C)=O)CCN(c2cc(C)ncn2)C1` (configuration not stated), the cytotoxicity at 70.5 h rises from -3.09% to 10.4%.

Going from `Cc1c[nH]c(C2CN(Cc3ccccc3C(=O)O)CCO2)n1` (configuration not stated) to `O=C(O)c1ccccc1-c1ccc(CN2CCC(CO)C2)cc1` (configuration not stated), the cytotoxicity at 70.5 h falls from -1.83% to -6.69%.

Going from `CC(C)=CCCC1(C)C=Cc2c(cc(C)n(CC(=O)O)c2=O)O1` (configuration not stated) to `CC(C)c1cn(CC(=O)NC2CC(=O)N(CCc3ccccc3)C2)nn1` (configuration not stated), the cytotoxicity at 70.5 h falls from -3.4% to -3.95%.

Going from `Cc1ccc(CC2COCCN(S(=O)(=O)c3ccccc3)C2)nc1` (configuration not stated) to `CS(=O)(=O)c1cncnc1C1CCCN(C(=O)Cc2ccccc2F)C1` (configuration not stated), the cytotoxicity at 70.5 h falls from -0.967% to -7.69%.

Compared with `CCN(CC)S(=O)(=O)N1CCC(c2c(C(N)=O)sc3ccccc23)C1` (configuration not stated), `CCCN1CCCCCC1Cc1c(C(=O)NC)sc2ccccc12` (configuration not stated) is higher in cytotoxicity at 70.5 h: -3.04% for the first, 27.8% for the second.

Going from `CNC(=O)c1ccc(-c2ccc(CNS(=O)(=O)N(C)C)cc2)nc1C` to `CNC(=O)c1ccc(-c2ccc(CNC(=O)COC)cc2)nc1C`, the cytotoxicity at 70.5 h falls from -0.408% to -10.8%.

Compared with `Cc1cccc(CNC(=O)CC2CCN(S(C)(=O)=O)CC2)n1`, `O=C(CC1CCN(c2cccnn2)CC1)NC1CCOCC1` is lower in cytotoxicity at 70.5 h: -4.65% for the first, -17% for the second.

Going from `O=C(C1CCOCC1)N1C[C@H]2C[C@H](OCc3ccccc3)C[C@H]2C1` to `O=C(NCC1CCOCC1)[C@H]1C[C@@H]2CCN(Cc3ccncc3)C[C@@H]2O1`, the cytotoxicity at 70.5 h rises from -3.41% to -1.08%.

Compared with `Cc1cc(Cc2ccccc2F)cc(C2CCCNC2)n1` (configuration not stated), `Cc1cccc(NC(=O)c2cnc(C3CCCNC3)cn2)n1` (configuration not stated) is lower in cytotoxicity at 70.5 h: -1.65% for the first, -2.31% for the second.

Going from `CC(=O)N1CCC(c2cnc(NC3CCOCC3)cn2)CC1` to `Fc1cnc(N2CCO[C@H]3CN(CC4CCCC4)C[C@H]32)nc1`, the cytotoxicity at 70.5 h falls from -6.84% to -13%.

Compared with `CC(C)C[C@H](N)COc1cccc(F)c1Oc1cccc(Cl)c1`, `CC(C)n1nnc(CC(=O)NCC2(c3ccccc3F)CCOCC2)n1` is lower in cytotoxicity at 70.5 h: 26.3% for the first, -8.63% for the second.

Going from `Cc1cnc(CCNC(=O)C2CN(C(=O)Cc3ccc(F)cc3)C2)s1` to `CC(=O)N1CC(C(=O)NCCc2ncc(C)s2)C1`, the cytotoxicity at 70.5 h falls from 15.9% to -5.34%.

Compared with `Cn1cnc2ccc(NC(=O)CC3CCN(C4CCCCC4)CC3)cc21`, `CN1CCCCC1CC(=O)Nc1ccc2ncn(C)c2c1` (configuration not stated) is higher in cytotoxicity at 70.5 h: -4.48% for the first, 13.5% for the second.

Compared with `Cc1ccnc(C2CCN(c3ccnc(C)n3)C2)n1` (configuration not stated), `Cc1ccnc(C2CN(c3ccnc(C)n3)C2)n1` is higher in cytotoxicity at 70.5 h: -12.3% for the first, -5.49% for the second.

First: CN1C(=O)CO[C@H]2CN(C(=O)c3ccc4c(c3)CCCC4)C[C@@H]21
Second: O=C(c1ccc(F)cc1)N1C[C@@H]2OCCN(c3ncccn3)[C@@H]2C1
The cytotoxicity at 70.5 h of the first is higher: 8.95% for the first, 4.02% for the second.

Compared with `Nc1nc(N)c2c(n1)OC1(CCCN(Cc3nccs3)CC1)C2` (configuration not stated), `COCC1c2c(cnn2CC2CC2)CCN1Cc1nccs1` (configuration not stated) is higher in cytotoxicity at 70.5 h: -9.72% for the first, -4.64% for the second.

Going from `CC(=O)N1CCCCC[C@@H]2[C@@H]1[C@H](c1cccc(F)c1)CN2C(C)=O` to `CC(=O)N1CCCCC[C@@H]2[C@@H]1[C@H](c1cccc(F)c1)CN2C(=O)C1CC1`, the cytotoxicity at 70.5 h rises from -10.6% to -3.31%.

First: Nc1c(C(=O)C2CCCN(C(=O)C3CC3)C2)cnn1-c1ccc(F)cc1 (configuration not stated)
Second: O=C1CN(C(=O)C2CN(c3ccc(F)cc3)CCO2)CCN1 (configuration not stated)
The cytotoxicity at 70.5 h of the first is higher: -2.33% for the first, -7.29% for the second.

First: Cc1cc(C)nc(N2CCC(c3cc(CCO)[nH]n3)C2)n1 (configuration not stated)
Second: Cc1cc(C)nc(N2CCC(Cn3cc(C(N)=O)cn3)CC2)n1
The cytotoxicity at 70.5 h of the first is lower: -12.4% for the first, -7.04% for the second.

Going from `NCCC(=O)NCC1(O)CCCN(c2ccnc3cccnc23)C1` (configuration not stated) to `NCCCC(=O)NCC1(O)CCCN(c2ccnc3cccnc23)C1` (configuration not stated), the cytotoxicity at 70.5 h falls from -3.53% to -4.51%.

Compared with `Cc1cc(C(=O)N(C)C)nc(C2(C)CCCN2c2ccnc(C)n2)n1` (configuration not stated), `Cc1cc(C)nc(N2CCC(Cn3cc(C(=O)N(C)C)cn3)CC2)n1` is higher in cytotoxicity at 70.5 h: -6.87% for the first, -3.57% for the second.

Compared with `Cn1cc(CN2CCC(c3ccncc3)CC2)cn1`, `c1cc(CN2CCC(c3ccc4c(c3)OCO4)CC2)ccn1` is higher in cytotoxicity at 70.5 h: -9.54% for the first, -1.06% for the second.

Going from `Cc1cc(NCC2CCCCC2)n2ncnc2n1` to `CCn1ccnc1CN1CCN(c2cc(C)nc(C3CCCN3)c2)CC1` (configuration not stated), the cytotoxicity at 70.5 h falls from -2.65% to -5.1%.

Compared with `Cc1ncc(-c2ccncc2)c(C2CCCN(C(=O)c3ccno3)C2)n1` (configuration not stated), `O=C(c1cc(-c2cccnc2)[nH]n1)N1CCCC(c2cnccn2)C1` (configuration not stated) is higher in cytotoxicity at 70.5 h: 5.49% for the first, 12% for the second.

Going from `CS(=O)(=O)c1cncnc1C1CCCN(C(=O)Nc2ccc(F)cc2)C1` (configuration not stated) to `Fc1ccc(-c2cnc(C3CCCN3)cn2)cc1` (configuration not stated), the cytotoxicity at 70.5 h rises from -4.34% to -2.54%.

Going from `Cc1nc(C2CCN(S(C)(=O)=O)CC2)nc(N2CCCC2)c1C` to `CN1CCCCC1c1cncc(N2CCC(O)CC2)n1` (configuration not stated), the cytotoxicity at 70.5 h rises from -3.13% to -0.469%.

Compared with `CO[C@H]1C[C@@H]2CN(C(=O)c3cc4cccc(F)c4[nH]3)C[C@@H]2C1`, `O=C(NCc1ccco1)[C@H]1C[C@H]2OCC[C@H]2N(C(=O)c2ccncc2)C1` is lower in cytotoxicity at 70.5 h: -6.67% for the first, -12.4% for the second.

Going from `CN1CCC(CCc2ccnc(NC(=O)c3ccccn3)c2)CC1` to `CN1CCN(C(=O)CCCc2ccccc2)CC(O)(Cn2cccn2)C1` (configuration not stated), the cytotoxicity at 70.5 h falls from 15.4% to -2.15%.

First: CC(C)N1CCCCC1c1cc(CO)[nH]n1 (configuration not stated)
Second: Cc1nn(C)cc1-c1cncn1CCN(C)C1CCCC1
The cytotoxicity at 70.5 h of the first is higher: -3.81% for the first, -5% for the second.

Going from `Cc1nc(Nc2nnc(C)s2)cc(C2CCCN2)n1` (configuration not stated) to `Cc1nc(CN2C(=O)CCC23CCN(c2ncccn2)CC3)cs1`, the cytotoxicity at 70.5 h falls from -6.91% to -8.07%.

Going from `O=C(O)C1(Cc2cccc(-c3cccs3)c2)CCCNC1` (configuration not stated) to `CN(C)C(=O)[C@@H]1CCO[C@@H]2CCN(CCc3ccccc3)C[C@@H]21`, the cytotoxicity at 70.5 h falls from 14.3% to 1.43%.

First: COCC1Cn2nnc(-c3cnn(C)c3)c2CN1Cc1ccc(C)s1 (configuration not stated)
Second: CN(Cc1cncnc1)Cc1cn2c(n1)CN(C1CCOC1)CC2 (configuration not stated)
The cytotoxicity at 70.5 h of the first is higher: 4.51% for the first, -13.2% for the second.

Going from `O=S(=O)(C1CC1)N1CCO[C@H]2[C@H](OCCN3CCCC3)CC[C@@H]21` to `c1ccc(CN2CCO[C@H]3[C@H](OCCN4CCCC4)CC[C@@H]32)nc1`, the cytotoxicity at 70.5 h falls from 23.9% to -7.8%.

First: CCS(=O)(=O)N1CCO[C@H]2[C@H](OCCCn3cccn3)CC[C@@H]21
Second: CN(C)CCO[C@@H]1CC[C@H]2[C@H]1OCCN2C(=O)CCc1ccccc1
The cytotoxicity at 70.5 h of the first is higher: -9.45% for the first, -12.8% for the second.

Compared with `CCOCC1CN(C(=O)CS(C)(=O)=O)Cc2cnn(C)c21` (configuration not stated), `COCC(=O)N1CCC2(CC1)COCCN2CCN(C)C` is lower in cytotoxicity at 70.5 h: -14.4% for the first, -19.5% for the second.

First: O=S(=O)(c1cccs1)N1CCCn2cnc(CN3CCCC3)c2C1
Second: CN1CC(=O)N(c2cccnc2)CC12CCN(C(=O)C1CCCCC1)C2 (configuration not stated)
The cytotoxicity at 70.5 h of the first is lower: 23.3% for the first, 36.1% for the second.

Compared with `O=C(NC1CC1)[C@H]1C[C@H]2OCC[C@H]2N(CC2CCOCC2)C1`, `O=C(NC1CCC1)[C@@H]1C[C@@H]2CCN(Cc3ccncc3)C[C@H]2O1` is lower in cytotoxicity at 70.5 h: 22.7% for the first, -4.89% for the second.

First: Fc1cnc(N2CCn3cc(CNc4ccccn4)nc3C2)nc1
Second: c1ccc(OC[C@]23COC[C@H]2CN(Cc2ccoc2)C3)nc1
The cytotoxicity at 70.5 h of the first is lower: -17.4% for the first, -12.9% for the second.

`CC(=O)N1CCC2(CC1)COCCN2CCN(C)C` gave a cytotoxicity at 70.5 h of -10.7%.
